Data from patent US20200131669A1, “CYCLIC PEPTIDE COMPOUND HAVING HIGH MEMBRANE PERMEABILITY, AND LIBRARY CONTAINING SAME” (Chugai Seiyaku Kabushiki Kaisha, priority 2017, published 2020).
Starred links: 1 amine or outer side, 2 acyl side, 3 side chain; linkers in the order of their positions; H or OH if unused. Positions of bridges follow the written chain, without caps; N, C: chain ends. Non-standard residues stand in square brackets, D forms with d. Residues, ends and D or L forms follow the SMILES beside them. ξ: configuration not given here. *: point of attachment. NMeF = CN[C@@H](Cc1ccccc1)C(=O)O; NMeGABA = CN(CCCC(=O)[*:2])[*:1]; dNMeF = CN[C@H](Cc1ccccc1)C(=O)O; hPhe = N[C@@H](CCc1ccccc1)C(=O)O; NMeL = CN[C@@H](CC(C)C)C(=O)O; NMeV = CN[C@H](C(=O)O)C(C)C; NMeAbu = CC[C@H](NC)C(=O)O; NMeS = CN[C@@H](CO)C(=O)O; NMeA = CN[C@@H](C)C(=O)O; Piperidide = C1CCN(*)CC1; Abu = CC[C@H](N)C(=O)O; Isopentyl = CC(C)CC*; ξS = NC(CO)C(=O)O; Sar = CNCC(=O)O; tBu = CC(C)(C)*

Assay: Caco-2 membrane permeability, improved method as used in the following Examples (96-well, 20 to 24 h preincubation)
Type: in vitro ADME
Conditions: human, Caco-2, Caco-2
Procedure, shortened: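 Papp (cm/sec) was derived from LC/MS of basal samples collected 180 min after apical dosing in FaSSIF/HBSS pH 6.0 with 1% DMSO, against a basal HBSS pH 7.4 receiver containing 4% BSA. Three-week Caco-2 cultures were first preincubated with compound in DMEM+FaSSIF at 37 °C for 20–24 h.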

In order of falling Papp A→B at 180 min:
1. CC[C@@H]1NC(=O)[C@H](Cc2ccccc2)N(C)C(=O)[C@H](COCCC(C)C)N(C)C(=O)[C@H](CC(C)C)NC(=O)[C@H](C)N(C)C(=O)C[C@@H](C(=O)N2CCCCC2)NC(=O)[C@H](CC(C)C)N(C)C(=O)CN(C)C(=O)[C@H]([C@@H](C)O)NC(=O)[C@H](CC(C)C)N(C)C(=O)[C@H](Cc2ccccc2)N(C)C1=O [pd307] ([NMeA]L[NMeS](Isopentyl)[NMeF][Abu][NMeF][NMeL]T[Sar][NMeL]D-Piperidide; lactam N-11)  2.9 ×10⁻⁶ cm/s
2. CC(C)C[C@H]1C(=O)N(C)[C@@H](Cc2ccccc2)C(=O)N[C@H](C(=O)N2CCCCC2)CC(=O)N(C)[C@@H](C(C)C)C(=O)N[C@@H](C)C(=O)N(C)[C@@H](Cc2ccccc2)C(=O)N(C)[C@@H](CC(C)C)C(=O)N(C)CC(=O)N[C@@H]([C@@H](C)O)C(=O)N(C)[C@@H](C(C)C)C(=O)N[C@@H](CCc2ccccc2)C(=O)N1C [pd311] ([NMeV]A[NMeF][NMeL][Sar]T[NMeV][hPhe][NMeL][NMeF]D-Piperidide; lactam N-11)  2.6 ×10⁻⁶ cm/s
3. CC(C)C[C@H]1C(=O)N[C@@H](CCc2ccccc2)C(=O)N(C)[C@@H](Cc2ccccc2)C(=O)N(C)[C@@H](CC(C)C)C(=O)N[C@H](C(=O)N2CCCCC2)CC(=O)N[C@H](C(C)C)C(=O)N(C)[C@@H](C)C(=O)N[C@@H](C(C)C)C(=O)N(C)[C@@H](CC(C)C)C(=O)N[C@@H]([C@@H](C)O)C(=O)N(C)CC(=O)N1C [pd313] ([dV][NMeA]V[NMeL]T[Sar][NMeL][hPhe][NMeF][NMeL]D-Piperidide; lactam N-11)  2.5 ×10⁻⁶ cm/s
4. CC(C)CCOCC1NC(=O)[C@H](CC(C)C)N(C)C(=O)[C@H](Cc2ccccc2)N(C)C(=O)CN(C)C(=O)[C@H]([C@@H](C)O)NC(=O)[C@H](CC(C)C)N(C)C(=O)[C@H](C(C)C)NC(=O)[C@H](Cc2ccccc2)N(C)C(=O)CN(C)C(=O)C[C@@H](C(=O)N2CCCCC2)NC(=O)[C@H](CC(C)C)N(C)C1=O (stereo partly drawn) [pd305] ([Sar][NMeF]V[NMeL]T[Sar][NMeF][NMeL][ξS](Isopentyl)[NMeL]D-Piperidide; lactam N-11)  2.3 ×10⁻⁶ cm/s
5. CC(C)CCOC[C@@H]1NC(=O)[C@H](C)N(C)C(=O)C[C@@H](C(=O)N2CCCCC2)NC(=O)[C@H](CC(C)C)N(C)C(=O)CN(C)C(=O)[C@H]([C@@H](C)O)NC(=O)[C@H](CC(C)C)N(C)C(=O)[C@H](Cc2ccccc2)N(C)C(=O)[C@H](C(C)C)NC(=O)[C@H](Cc2ccccc2)N(C)C(=O)[C@H](CC(C)C)N(C)C1=O [pd304] ([NMeA]S(Isopentyl)[NMeL][NMeF]V[NMeF][NMeL]T[Sar][NMeL]D-Piperidide; lactam N-11)  2.2 ×10⁻⁶ cm/s
6. CC(C)CCOC[C@@H]1NC(=O)[C@H](CC(C)C)N(C)C(=O)CN(C)C(=O)[C@H]([C@@H](C)O)NC(=O)[C@H](CC(C)C)N(C)C(=O)[C@H](CC(C)C)NC(=O)[C@H](Cc2ccccc2)N(C)C(=O)[C@@H](C)NC(=O)C[C@@H](C(=O)N2CCCCC2)NC(=O)[C@H](CC(C)C)N(C)C(=O)[C@@H](Cc2ccccc2)N(C)C1=O [pd300] ([dA][NMeF]L[NMeL]T[Sar][NMeL]S(Isopentyl)[dNMeF][NMeL]D-Piperidide; lactam N-11)  1.9 ×10⁻⁶ cm/s
7. CC(C)CCOC[C@@H]1NC(=O)[C@H](Cc2ccccc2)N(C)C(=O)[C@@H](C)NC(=O)C[C@@H](C(=O)N2CCCCC2)NC(=O)[C@H](CC(C)C)N(C)C(=O)[C@H](Cc2ccccc2)N(C)C(=O)[C@H](COC(C)(C)C)NC(=O)[C@H](CC(C)C)N(C)C(=O)CN(C)C(=O)[C@H]([C@@H](C)O)NC(=O)[C@H](CC(C)C)N(C)C1=O [pd301] ([dA][NMeF]S(Isopentyl)[NMeL]T[Sar][NMeL]S(tBu)[NMeF][NMeL]D-Piperidide; lactam N-11)  1.7 ×10⁻⁶ cm/s
8. CC(C)C[C@H]1C(=O)N[C@@H](COC(C)(C)C)C(=O)N(C)[C@@H](Cc2ccccc2)C(=O)N(C)[C@@H](CC(C)C)C(=O)N[C@H](C(=O)N2CCCCC2)CC(=O)N[C@H](C(C)C)C(=O)N(C)[C@@H](CC(C)C)C(=O)N[C@@H](CCc2ccccc2)C(=O)N(C)[C@@H](CC(C)C)C(=O)N[C@@H]([C@@H](C)O)C(=O)N(C)CC(=O)N1C [pd315] ([dV][NMeL][hPhe][NMeL]T[Sar][NMeL]S(tBu)[NMeF][NMeL]D-Piperidide; lactam N-11)  1.7 ×10⁻⁶ cm/s
9. CC(C)C[C@H]1C(=O)N(C)[C@@H](Cc2ccccc2)C(=O)N[C@@H](COC(C)(C)C)C(=O)N(C)[C@@H](C)C(=O)N[C@H](C(=O)N2CCCCC2)CC(=O)N(C)[C@@H](C)C(=O)N(C)[C@@H](Cc2ccccc2)C(=O)N[C@@H](CCc2ccccc2)C(=O)N(C)[C@@H](CC(C)C)C(=O)N[C@@H]([C@@H](C)O)C(=O)N(C)CC(=O)N1C [pd310] ([NMeA][NMeF][hPhe][NMeL]T[Sar][NMeL][NMeF]S(tBu)[NMeA]D-Piperidide; lactam N-11)  1.6 ×10⁻⁶ cm/s
10. CC(C)C[C@@H]1NC(=O)[C@H](Cc2ccccc2)N(C)C(=O)[C@@H](C(C)C)NC(=O)C[C@@H](C(=O)N2CCCCC2)NC(=O)[C@H](C)N(C)C(=O)[C@H](CC(C)C)N(C)C(=O)[C@H](CCc2ccccc2)NC(=O)[C@H](CC(C)C)N(C)C(=O)CN(C)C(=O)[C@H]([C@@H](C)O)NC(=O)[C@H](CC(C)C)N(C)C1=O [pd312] ([dV][NMeF]L[NMeL]T[Sar][NMeL][hPhe][NMeL][NMeA]D-Piperidide; lactam N-11)  1.5 ×10⁻⁶ cm/s
11. CC[C@H](C)[C@@H]1NC(=O)[C@H](CC(C)C)N(C)C(=O)CCCN(C)C(=O)C[C@@H](C(=O)N2CCCCC2)NC(=O)[C@H](CC(C)C)N(C)C(=O)[C@H](C)N(C)C(=O)[C@H]([C@@H](C)O)NC(=O)[C@H](CC(C)C)N(C)C(=O)[C@H](COCCC(C)C)NC(=O)[C@H](Cc2ccccc2)N(C)C(=O)[C@H](Cc2ccccc2)N(C)C1=O [pd302] ([NMeGABA][NMeL]I[NMeF][NMeF]S(Isopentyl)[NMeL]T[NMeA][NMeL]D-Piperidide; lactam N-11)  1.4 ×10⁻⁶ cm/s
12. CC(C)C[C@H]1NC(=O)C[C@@H](C(=O)N2CCCCC2)NC(=O)[C@H](C)N(C)C(=O)[C@H](CC(C)C)N(C)C(=O)[C@H](COC(C)(C)C)NC(=O)[C@H](CC(C)C)N(C)C(=O)CN(C)C(=O)[C@H]([C@@H](C)O)NC(=O)[C@H](CC(C)C)N(C)C(=O)[C@H](CCc2ccccc2)NC(=O)[C@H](Cc2ccccc2)N(C)C1=O [pd314] ([dL][NMeF][hPhe][NMeL]T[Sar][NMeL]S(tBu)[NMeL][NMeA]D-Piperidide; lactam N-11)  1.4 ×10⁻⁶ cm/s
13. CC[C@H]1C(=O)N[C@@H]([C@@H](C)O)C(=O)N(C)CC(=O)N(C)[C@@H](COCCC(C)C)C(=O)N[C@@H](CC(C)C)C(=O)N(C)[C@@H](Cc2ccccc2)C(=O)N(C)[C@@H](CC(C)C)C(=O)N[C@H](C(=O)N2CCCCC2)CC(=O)N[C@H](C(C)C)C(=O)N(C)[C@@H](Cc2ccccc2)C(=O)N[C@@H](CC(C)C)C(=O)N1C [pd306] ([dV][NMeF]L[NMeAbu]T[Sar][NMeS](Isopentyl)L[NMeF][NMeL]D-Piperidide; lactam N-11)  1.2 ×10⁻⁶ cm/s
14. CC(C)CCOC[C@@H]1NC(=O)[C@H](CC(C)C)N(C)C(=O)CCCN(C)C(=O)C[C@@H](C(=O)N2CCCCC2)NC(=O)[C@H](CC(C)C)N(C)C(=O)[C@H](C)N(C)C(=O)[C@H]([C@@H](C)O)NC(=O)[C@H](CC(C)C)N(C)C(=O)[C@H](COC(C)(C)C)NC(=O)[C@H](Cc2ccccc2)N(C)C(=O)[C@H](Cc2ccccc2)N(C)C1=O [pd303] ([NMeGABA][NMeL]S(Isopentyl)[NMeF][NMeF]S(tBu)[NMeL]T[NMeA][NMeL]D-Piperidide; lactam N-11)  1 ×10⁻⁶ cm/s

Same assay, conditions: human, Caco-2, Caco-2 (cm/sec)

In order of rising Papp A→B at 180 min:
1. CC(C)C[C@@H]1NC(=O)CN(C)C(=O)[C@H](Cc2ccccc2)N(C)C(=O)[C@@H](C)NC(=O)C[C@@H](C(=O)N2CCCCC2)NC(=O)[C@H](Cc2ccccc2)N(C)C(=O)[C@H](Cc2ccccc2)N(C)C(=O)[C@H](COC(C)(C)C)NC(=O)[C@H](CC(C)C)N(C)C(=O)[C@H](Cc2ccccc2)NC(=O)[C@H]([C@@H](C)O)NC1=O [pd246] ([dA][NMeF][Sar]LTF[NMeL]S(tBu)[NMeF][NMeF]D-Piperidide; lactam N-11)  0.014 ×10⁻⁶ cm/s
2. CC(C)C[C@@H]1NC(=O)[C@H]([C@@H](C)O)NC(=O)[C@H](CC(C)C)N(C)C(=O)C[C@@H](C(=O)N2CCCCC2)NC(=O)[C@H](COC(C)(C)C)NC(=O)[C@H](Cc2ccccc2)NC(=O)[C@H](C)N(C)C(=O)[C@H](Cc2ccccc2)NC(=O)CN(C)C(=O)[C@H](Cc2ccccc2)N(C)C(=O)[C@H](Cc2ccccc2)N(C)C1=O [pd245] ([NMeL]TL[NMeF][NMeF][Sar]F[NMeA]FS(tBu)D-Piperidide; lactam N-11)  0.019 ×10⁻⁶ cm/s
3. CC(C)C[C@H]1C(=O)NCC(=O)N[C@H](C(=O)N(C)[C@@H](Cc2ccccc2)C(=O)N(C)[C@@H](Cc2ccccc2)C(=O)N[C@@H](C)C(=O)N2CCCCC2)CC(=O)N[C@@H](C)C(=O)N[C@@H]([C@@H](C)O)C(=O)N(C)[C@@H](C)C(=O)N(C)[C@@H](Cc2ccccc2)C(=O)N[C@@H](C(C)C)C(=O)N(C)[C@@H](Cc2ccccc2)C(=O)N1C [pd247] (AT[NMeA][NMeF]V[NMeF][NMeL]GD[NMeF][NMeF]A-Piperidide; lactam N-9)  0.087 ×10⁻⁶ cm/s

Same assay, conditions: human; Papp, Caco-2 membrane permeability, improved method; read-out: Caco-2

In the case of CC(C)CCOC[C@H]1C(=O)N[C@@H]([C@@H](C)O)C(=O)N(C)CC(=O)N(C)[C@@H](CC(C)C)C(=O)N[C@H](C(=O)N2CCCCC2)CC(=O)N(C)[C@@H](C)C(=O)N[C@@H](CC(C)C)C(=O)N(C)[C@@H](CC(C)C)C(=O)N(C)[C@@H](Cc2ccccc2)C(=O)N[C@@H](CC(C)C)C(=O)N(C)[C@@H](Cc2ccccc2)C(=O)N1C [pd308] ([NMeA]L[NMeL][NMeF]L[NMeF][NMeS](Isopentyl)T[Sar][NMeL]D-Piperidide; lactam N-11), the Papp A→B at 180 min is reported as 2.1 ×10⁻⁶ cm/s.
